Values of other authors in publication PMC4210863 (Bioorganic & medicinal chemistry, 2010).

Biological target: T1, O-GlcNAcase (OGA) (Homo sapiens, UniProt O60502)
T1 sequence (O60502 1-916): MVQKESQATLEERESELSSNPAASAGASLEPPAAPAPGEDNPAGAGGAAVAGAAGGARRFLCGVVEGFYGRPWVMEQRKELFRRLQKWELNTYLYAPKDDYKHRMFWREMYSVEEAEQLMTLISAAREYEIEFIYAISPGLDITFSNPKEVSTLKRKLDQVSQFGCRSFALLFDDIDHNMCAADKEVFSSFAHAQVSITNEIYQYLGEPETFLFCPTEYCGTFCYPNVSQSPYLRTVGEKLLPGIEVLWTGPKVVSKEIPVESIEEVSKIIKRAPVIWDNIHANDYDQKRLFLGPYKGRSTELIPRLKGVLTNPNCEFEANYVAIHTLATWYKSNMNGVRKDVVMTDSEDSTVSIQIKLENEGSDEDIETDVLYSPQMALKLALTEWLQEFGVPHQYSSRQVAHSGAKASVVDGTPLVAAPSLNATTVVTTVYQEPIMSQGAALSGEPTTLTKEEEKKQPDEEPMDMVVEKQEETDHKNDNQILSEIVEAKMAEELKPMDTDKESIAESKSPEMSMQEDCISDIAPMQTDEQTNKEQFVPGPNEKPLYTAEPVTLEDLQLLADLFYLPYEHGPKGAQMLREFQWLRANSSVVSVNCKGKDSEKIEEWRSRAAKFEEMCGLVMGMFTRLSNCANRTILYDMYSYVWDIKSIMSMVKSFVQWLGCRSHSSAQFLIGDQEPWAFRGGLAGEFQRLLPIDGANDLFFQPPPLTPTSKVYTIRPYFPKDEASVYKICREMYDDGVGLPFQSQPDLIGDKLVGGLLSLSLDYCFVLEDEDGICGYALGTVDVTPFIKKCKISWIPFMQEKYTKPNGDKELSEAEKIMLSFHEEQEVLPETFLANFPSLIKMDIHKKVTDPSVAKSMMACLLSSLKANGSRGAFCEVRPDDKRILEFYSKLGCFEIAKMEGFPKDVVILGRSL
Test: fluorogenic substrate hydrolysis by OGA
Format: biochemical

Km: 85 µM
Compound: CC(=O)N[C@H]1[C@H](Oc2ccc3c(c2)Oc2cc(O[C@@H]4O[C@H](CO)[C@@H](O)[C@H](O)[C@H]4NC(C)=O)ccc2C32OC(=O)c3ccccc32)O[C@H](CO)[C@@H](O)[C@@H]1O [compound 3, FDGlcNAc]
